Test results: ChEMBL document CHEMBL4811248, “Discovery of imidazopyrrolopyridines derivatives as novel and selective inhibitors of JAK2” (Eur J Med Chem, 2021)
≈ marks a conversion by molar mass, not a printed value.

Legend:
[1] = Cmax in Lewis rat at 5 mg/kg, po measured up to 24 hrs by LC-MS/MS method; format: ADME, organism-based; parameters: route oral, dose 5 mg/kg, time <=24; settings: in vivo
[2] = Volume of distribution at steady state in Lewis rat at 5 mg/kg, po measured up to 24 hrs by LC-MS/MS method; format: ADME, organism-based; settings: in vivo
[3] = Half life in Lewis rat at 1 mg/kg, iv measured up to 24 hrs by LC-MS/MS method; format: ADME, organism-based; settings: in vivo
[4] = Aqueous solubility of compound by HPLC analysis; format: physicochemical; settings: buffer
[5] = Metabolic stability in rat liver microsomes assessed as compound remaining at 1 uM measured up to 120 mins in presence of NADPH by HPLC-MS/MS analysis; format: ADME, Microsome; settings: read-out: Stabilty
[6] = AUC in Lewis rat at 1 mg/kg, iv measured up to 24 hrs by LC-MS/MS method; format: ADME, organism-based; parameters: route intravenous, dose 1 mg/kg, time <=24; settings: in vivo
[7] = Clearance in Lewis rat at 1 mg/kg, iv measured up to 24 hrs by LC-MS/MS method; format: ADME, organism-based; settings: in vivo
[8] = Tmax in Lewis rat at 5 mg/kg, po measured up to 24 hrs by LC-MS/MS method; format: ADME, organism-based; settings: in vivo
[9] = Volume of distribution at steady state in Lewis rat at 1 mg/kg, iv measured up to 24 hrs by LC-MS/MS method; format: ADME, organism-based; settings: in vivo, read-out: Vdss
[10] = MRT in Lewis rat at 1 mg/kg, iv measured up to 24 hrs by LC-MS/MS method; format: ADME, organism-based; settings: in vivo
[11] = MRT in Lewis rat at 5 mg/kg, po measured up to 24 hrs by LC-MS/MS method; format: ADME, organism-based; settings: in vivo
[12] = AUC in Lewis rat at 5 mg/kg, po measured up to 24 hrs by LC-MS/MS method; format: ADME, organism-based; parameters: route oral, dose 5 mg/kg, time <=24; settings: in vivo
[13] = Oral bioavailability in Lewis rat at 5 mg/kg measured up to 24 hrs by LC-MS/MS method; format: ADME, organism-based; settings: in vivo
[14] = Distribution coefficient between octanol and aqueous buffer, logD of the compound in pH 7.2 buffer
[15] = Half life in Lewis rat at 5 mg/kg, po measured up to 24 hrs by LC-MS/MS method; format: ADME, organism-based; settings: in vivo
[16] = Clearance in Lewis rat at 5 mg/kg, po measured up to 24 hrs by LC-MS/MS method; format: ADME, organism-based; settings: in vivo

Cmax [1]: 659 ng/mL
Vdss [2]: 4.88 L/kg
half-life [3]: 1.96 h
solubility [4]: 16.3 µg/mL (≈ 43.9 µM)
remaining at 2 h, 1 µM [5]: 96.1%
AUC at 24 h [6]: 1590 ng·h/mL
clearance [7]: 10.5 mL/min/kg
Tmax [8]: 1 h
Vd [9]: 1.8 L/kg
MRT [10]: 1.34 h
MRT [11]: 4.36 h
AUC at 24 h [12]: 3610 ng·h/mL
bioavailability [13]: 45.5%
logD [14]: 0.24
half-life [15]: 2.43 h
clearance [16]: 23.2 mL/min/kg
Compound: CCS(=O)(=O)N1CC(CC#N)(n2cc(-c3ncnc4[nH]ccc34)cn2)C1 [BARICITINIB]
